Source: US10130095B2, “Fungicidal compositions of pyrazolecarboxylic acid alkoxyamides” (BASF AGRO B.V., priority 2014, dated 2018)

Columns and labels:
Botrytis cinerea = experiment: in vivo preventive test on Botrytis test (beans); conditions: evaluated 2 days after inoculation
Experimental: Solvent: 24.5 parts by weight of acetone • 24.5 parts by weight of dimethylacetamide Emulsifier: 1 part by weight of alkylaryl polyglycol ether To produce a suitable preparation of active compound, 1 part by weight of active compound is mixed with the stated amounts of solvent and emulsifier, and the concentrate is diluted with water to the desired concentration. To test for preventive activity, young plants are sprayed with the preparation of active compound. After the spray coating has dried on, 2 small pieces of agar covered with growth of Botrytis cinerea are placed on each leaf. The inoculated plants are placed in a darkened chamber at 20° C. and a relative at mospheric humidity of 100%. 2 days after the inoculation, the size of the lesions on the leaves is evaluated. 0% means an efficacy which corresponds to that of the untreated control, while an efficacy of 100% means that no disease is observed.

Septoria tritici = experiment: in vivo preventive Septoria tritici test (wheat); conditions: 15 ppm a.i., evaluated 21 days after inoculation
Experimental: Solvent: 49 parts by weight of N,N-dimethylacetamide Emulsifier: 1 part by weight of alkylaryl polyglycol ether To produce a suitable preparation of active compound, 1 part by weight of active compound or active compound combination is mixed with the stated amounts of solvent and emulsifier, and the concentrate is diluted with water to the desired concentration. To test for preventive activity, young plants are sprayed with the preparation of active compound or active compound combination at the stated rate of application. After the spray coating has been dried, the plants are sprayed with a spore suspension of Septoria tritici. The plants remain for 48 hours in an incubation cabinet at approximately 20° C. and a relative atmospheric humidity of approximately 100% and afterwards for 60 hours at approximately 15° C. in a translucent incubation cabinet at a relative atmospheric humidity of approximately 100%. The plants are placed in the greenhouse at a temperature of approximately 15° C. and a relative atmospheric humidity of approximately 80%. The test is evaluated 21 days after the inoculation. 0% means an efficacy which corresponds to that of the untreated control, while an efficacy of 100% means that no disease is observed.

Venturia inaequalis = experiment: in vivo preventive test on Venturia test (apples); conditions: evaluated 10 days after inoculation
Experimental: (§1) Solvent: 24.5 parts by weight of acetone • 24.5 parts by weight of dimethylacetamide Emulsifier: 1 part by weight of alkylaryl polyglycol ether To produce a suitable preparation of active compound, 1 part by weight of active compound is mixed with the stated amounts of solvent and emulsifier, and the concentrate is diluted with water to the desired concentration. To test for preventive activity, young plants are sprayed with the preparation of active compound at the stated rate of application. After the spray coating has dried on, the plants are inoculated with an aqueous conidia suspension of the causal agent of apple scab (Venturia inaequalis) and then remain for 1 day in an incubation cabinet at approximately 20° C. and a relative atmospheric humidity of 100%. The plants are then placed in a greenhouse at approximately 21° C. and a relative atmospheric humidity of approximately 90%. The test is evaluated 10 days after the inoculation. 0% means an efficacy which corresponds to that of the untreated control, while an efficacy of 100% means that no disease is observed.

Alternaria solani = experiment: in vivo preventive test on Alternaria test (tomatoes); conditions: evaluated 3 days after inoculation
Experimental: as §1, with “aqueous spore” for “aqueous conidia”, “of Alternaria solani. The plants are” for “of the causal agent of apple scab (Venturia inaequalis) and”, “then placed” for “then remain for 1 day”, “The” for “The plants are then placed in a greenhouse at approximately 21° C. and a relative atmospheric humidity of approximately 90%. The”, “evaluated 3” for “evaluated 10”, “untreated control” for “untreated control,”

Compound | Efficacy in % found (Botrytis cinerea; 5 ppm a.i.) [%] | Efficacy in % found (Septoria tritici) [%] | Efficacy in % found (Botrytis cinerea; 0.5 ppm a.i.) [%] | Efficacy in % found (Venturia inaequalis; 0.125 ppm a.i.) [%] | Efficacy in % found (Alternaria solani; 1.25 ppm a.i.) [%] | Efficacy in % found (Alternaria solani; 2.5 ppm a.i.) [%] | Efficacy in % found (Venturia inaequalis; 1.25 ppm a.i.) [%]
CC(O)(Cn1cncn1)c1ccc(Oc2ccc(Cl)cc2)cc1C(F)(F)F (centres unmarked) [(B1-1), 2-[4-(4-Chlorophenoxy)-2-(trifluoromethyl)phenyl]-1-(1H-1,2,4-triazol-1-yl)propan-2-ol] | 20 | 0 | – | – | – | – | –
CON(C(=O)c1cn(C)nc1C(F)F)C(C)Cc1c(Cl)cc(Cl)cc1Cl (centres unmarked) [(I-1), 3-(difluoromethyl)-N-methoxy-1-methyl-N-[1-(2,4,6-trichlorophenyl)propan-2-yl]-1H-pyrazole-4-carboxamide] | – | – | 8 | 76 | – | – | –
CCC(O)(Cn1cncn1)c1ccc(Oc2ccc(Cl)cc2)cc1C(F)(F)F (centres unmarked) [(B1-2), 2-[4-(4-chlorophenoxy)-2-(trifluoromethyl)phenyl]-1-(1H-1,2,4-triazol-1-yl)butan-2-ol] | – | 13 | – | – | 8 | 30 | 30
